From patent publication US7575882B2, “Compositions and methods for identifying modulators of TRPV2” (Janssen Pharmaceutica N. V., priority 2005, dated 2009) come the findings set out here.

The target of assay [1] is T1, rat and human TRPV2 chimera HRR (Rattus norvegicus, UniProt Q9WUD2, A110E/A257S/D189N/D73N/DEL322-322/DEL56-59/DEL67-67/E160D/E240Q/E289D/E384A/E71D/E91D/F161Y/G295D/H202G/H269S/H293L/I268T/K144R/K150Q/K353E/K51R/L151P/L192A/L245Q/L96P/M137L/M277A/N102T/N368H/N45K/N63G/P261A/P325H/P38Q/P60Y/P61R/Q129K/Q163R/Q324S/Q70P/R100S/R388L/R392K/R41G/S264I/S291R/S346A/S391P/S46F/S47A/S65G/S82N/T227S/T93A/V390I/V83A/W101K/W351C/Y323L).
T1 construct: expressed in transfected cells; host or cells: HEK293, transient, pCI-neo
T1 sequence (Q9WUD2 with tags, fused parts or gaps P38Q/R41G/N45K/S46F/S47A/K51R/DEL56-59/P60Y/P61R/N63G/S65G/DEL67-67/Q70P/E71D/D73N/S82N/V83A/E91D/T93A/L96P/R100S/W101K/N102T/A110E/Q129K/M137L/K144R/K150Q/L151P/E160D/F161Y/Q163R/D189N/L192A/H202G/T227S/E240Q/L245Q/A257S/P261A/S264I/I268T/H269S/M277A/E289D/S291R/H293L/G295D/DEL322-322/Y323L/Q324S/P325H/S346A/W351C/K353E/N368H/E384A/R388L/V390I/S391P/R392K): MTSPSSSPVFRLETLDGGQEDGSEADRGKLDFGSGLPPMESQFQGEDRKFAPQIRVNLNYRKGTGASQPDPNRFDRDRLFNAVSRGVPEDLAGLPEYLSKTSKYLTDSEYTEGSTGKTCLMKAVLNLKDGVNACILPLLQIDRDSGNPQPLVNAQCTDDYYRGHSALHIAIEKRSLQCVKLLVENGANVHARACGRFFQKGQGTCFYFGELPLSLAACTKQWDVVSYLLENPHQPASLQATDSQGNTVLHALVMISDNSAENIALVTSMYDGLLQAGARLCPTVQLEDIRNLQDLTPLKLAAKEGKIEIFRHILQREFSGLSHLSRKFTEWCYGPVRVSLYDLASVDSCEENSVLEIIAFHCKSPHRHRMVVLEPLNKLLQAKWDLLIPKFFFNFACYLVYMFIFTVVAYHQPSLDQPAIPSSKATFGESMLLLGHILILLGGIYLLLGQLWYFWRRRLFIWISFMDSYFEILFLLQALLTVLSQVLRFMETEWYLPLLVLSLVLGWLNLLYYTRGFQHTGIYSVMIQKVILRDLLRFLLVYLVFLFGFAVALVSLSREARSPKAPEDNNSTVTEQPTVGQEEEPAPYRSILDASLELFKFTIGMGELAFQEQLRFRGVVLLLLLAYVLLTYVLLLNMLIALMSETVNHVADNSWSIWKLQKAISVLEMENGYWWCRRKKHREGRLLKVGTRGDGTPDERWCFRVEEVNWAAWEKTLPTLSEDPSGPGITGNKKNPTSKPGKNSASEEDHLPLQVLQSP
Nature of the assay: Calcium mobilization in HEK293 cells expressing TRPV2 chimera HRR. In kind it is cell-based. The conditions noted are these: expressed separately in HEK cells. The protocol:
(§1) The deletion mutant constructs were then transfected into HEK293 cells using Fugene 6 reagent (Roche) as per the manufacturer's instructions. At 24 hours post-transfection, the cells were harvested and replated in fresh DMEM medium supplemented with 10% fetal bovine serum, 100 units/ml penicillin, and 100 μg/ml streptomycin. The cells were distributed onto poly-D-Lysine coated 96-or 384-well plates at a density of approximately 40,000 and 10,000 cells per well, respectively. At approximately 48 hours post-transfection, the medium was removed from the assay plate and replaced with Calcium 3 Dye Buffer (Molecular Devices) using the protocol available from the manufacturer. Calcium mobilization was triggered using Δ^9-THC or 2-APB or elevated temperature buffer and measured using either FLIPR or FLEX STATION instruments.
(§2) Based on the predicted topology and primary sequence features of TRPV2, TRPV2 are divided into 3 major domains: 1) the amino-terminal intracellular domain; 2) the transmembrane domain; and 3) the carboxyl-terminal intracellular domain. For a chimera, each domain can be of rat (R) or human (H) origin. Three rat and human TRPV2 chimera were constructed and tested herein. RRH (SEQ ID NO:15) was a chimera comprising rat 1-392 aa, rat 393-646 aa, and human 647-764 aa. RHR (SEQ ID NO:16) was a chimera comprising rat 1-392, human 391-646, and rat 647-761. […]

Assay [2] has as its target T2, rat and human TRPV2 chimera RRH (Rattus norvegicus, UniProt Q9WUD2, A714S/D654T/DEL680-680/E685A/G695P/H651S/H683Q/K690T/K717Q/L688M/N655D/R687V/R694K/S723C/T698S).
T2 construct: expressed in transfected cells; host or cells: HEK293, transient, pCI-neo
T2 sequence (Q9WUD2 with tags, fused parts or gaps H651S/D654T/N655D/DEL680-680/H683Q/E685A/R687V/L688M/K690T/R694K/G695P/T698S/A714S/K717Q/S723C): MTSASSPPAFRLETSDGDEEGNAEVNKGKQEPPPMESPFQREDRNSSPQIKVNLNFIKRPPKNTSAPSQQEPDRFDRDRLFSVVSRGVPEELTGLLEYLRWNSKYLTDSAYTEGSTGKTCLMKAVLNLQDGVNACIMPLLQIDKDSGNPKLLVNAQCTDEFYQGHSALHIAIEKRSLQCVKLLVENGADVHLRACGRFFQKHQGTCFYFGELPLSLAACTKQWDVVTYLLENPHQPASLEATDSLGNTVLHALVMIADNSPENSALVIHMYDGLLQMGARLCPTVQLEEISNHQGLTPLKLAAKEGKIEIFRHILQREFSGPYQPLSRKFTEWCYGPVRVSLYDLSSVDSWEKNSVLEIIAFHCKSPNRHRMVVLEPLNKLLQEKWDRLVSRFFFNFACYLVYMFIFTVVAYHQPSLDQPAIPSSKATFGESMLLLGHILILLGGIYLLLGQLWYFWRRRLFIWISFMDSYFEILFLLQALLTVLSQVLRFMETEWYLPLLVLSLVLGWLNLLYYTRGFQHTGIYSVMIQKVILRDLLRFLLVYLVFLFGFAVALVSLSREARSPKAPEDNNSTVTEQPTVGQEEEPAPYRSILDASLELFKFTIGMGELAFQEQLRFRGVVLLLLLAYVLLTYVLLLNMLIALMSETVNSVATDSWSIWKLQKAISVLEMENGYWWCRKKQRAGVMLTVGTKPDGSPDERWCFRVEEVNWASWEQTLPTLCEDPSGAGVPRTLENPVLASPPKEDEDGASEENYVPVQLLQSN
Nature of the assay: Calcium mobilization in HEK293 cells expressing TRPV2 chimera RRH. It counts as cell-based. The conditions noted are these: expressed separately in HEK cells. As for the experimental part: as §1, §2
(Calcium flux is commonly read through the fluorescence of an indicator in the cells.)

As for Delta-9-tetrahydrocannabinol [Δ^9-THC], the “response of chimera HRR to the compound” value in assay [1] is reported as “not active”. For the same substance, the “response of chimera RRH to the compound” value in assay [2] is reported as “poorly”.
